Key:
[1] = refractive index (Na D-line) (dimensionless); xn = mol fraction of the nth substance listed; settings: 101 kPa, Liquid
[2] = xn = mol fraction of the nth substance listed; settings: 101 kPa, Liquid

COc1ccccc1 [anisole] + CCO
Settings | mass density, 298.15 K [kg/m3] | mass density, 303.15 K [kg/m3] | mass density, 308.15 K [kg/m3] | refractive index, 298.15 K | refractive index, 303.15 K | refractive index, 308.15 K | speed of sound, 298.15 K [m/s] | viscosity, 298.15 K [mPa·s] | viscosity, 303.15 K [mPa·s] | viscosity, 308.15 K [mPa·s]
[1], x1 = 0.0998 | – | – | – | 1.3856 | 1.3838 | 1.3814 | – | – | – | –
[1], x1 = 0.1985 | – | – | – | 1.4085 | 1.4066 | 1.4039 | – | – | – | –
[1], x1 = 0.2976 | – | – | – | 1.4284 | 1.4261 | 1.4241 | – | – | – | –
[1], x1 = 0.3973 | – | – | – | 1.4459 | 1.4428 | 1.4402 | – | – | – | –
[1], x1 = 0.5008 | – | – | – | 1.461 | 1.4586 | 1.4567 | – | – | – | –
[1], x1 = 0.5968 | – | – | – | 1.4737 | 1.4711 | 1.4695 | – | – | – | –
[1], x1 = 0.7015 | – | – | – | 1.4864 | 1.4842 | 1.4816 | – | – | – | –
[1], x1 = 0.7935 | – | – | – | 1.4955 | 1.4934 | 1.4907 | – | – | – | –
[1], x1 = 0.9014 | – | – | – | 1.5046 | 1.5031 | 1.5008 | – | – | – | –
[1], x1 = 1 | – | – | – | 1.5137 | 1.5113 | 1.5088 | – | – | – | –
[2], x1 = 0.0998 | 822.6 | 818.11 | 813.62 | – | – | – | 1178 | 0.995 | 0.908 | 0.831
[2], x1 = 0.1985 | 852.71 | 848.12 | 843.52 | – | – | – | 1226 | 0.934 | 0.851 | 0.777
[2], x1 = 0.2976 | 878.53 | 873.84 | 869.14 | – | – | – | 1277 | 0.91 | 0.829 | 0.768
[2], x1 = 0.3973 | 900.47 | 895.73 | 890.99 | – | – | – | 1290 | 0.881 | 0.813 | 0.747
[2], x1 = 0.5008 | 920.46 | 915.68 | 910.89 | – | – | – | 1301 | 0.882 | 0.807 | 0.749
[2], x1 = 0.5968 | 936.53 | 931.73 | 926.92 | – | – | – | 1314 | 0.849 | 0.784 | 0.727
[2], x1 = 0.7015 | 952.42 | 947.62 | 942.81 | – | – | – | 1326 | 0.894 | 0.832 | 0.774
[2], x1 = 0.7935 | 964.6 | 960.01 | 955.42 | – | – | – | 1340 | 0.897 | 0.83 | 0.772
[2], x1 = 0.9014 | 977.99 | 973.42 | 968.84 | – | – | – | 1355 | 0.923 | 0.858 | 0.792
[2], x1 = 1 | 989.15 | 984.45 | 979.73 | – | – | – | 1412 | 0.988 | 0.913 | 0.854
